Experimental data as given in paper PMC4811560, “Kinetic Characterisation of a Single Chain Antibody against the Hormone Abscisic Acid: Comparison with Its Parental Monoclonal” (PLoS ONE, 2016).
Read-outs that look alike come from different tables or passages of the source. Marks after values point to notes of the source that are not given here.

Key:
MBP-antiABA-scFv = experiment: SPR affinity in solution (competitive titration) of test compounds for the scFv; format: binding, mouse; details: for Cross-reactivity MBP-aABA-scFv: from KA relative to (+)-ABA = 100%; for Affinity in solution, MBP-aABA-scFv, KA / Kd: scFv 25 nM, 1 hour at 25°C; for Kd: read-out: Affinity in solution, MBP-aABA-scFv, KD
Method: All heterogeneous phase (surface) techniques can be subject to artefacts introduced by ligand immobilisation or e.g. biotinylation of the free ligand. […] The equilibrium mixtures (1 hour at 25°C) were injected over an SA chip surface saturated with b-PEG-ABA at high ligand density, and the initial binding rate of free scFv was measured. The concentration of free scFv from each equilibrium mixture was determined from a calibration curve (S6A Fig) and plotted against the concentration of free (+)-ABA. Data points were fitted to the solution affinity model in BIAevaluation (S5B Fig). […] Thus, the kinetics of the fusion protein have been described with confidence. Next these were compared with the characteristics of both cleaved, free scFv and with the parental monoclonal immunoglobulin.
The selectivity of the scFv for (+)-ABA was tested by determining the affinity in solution for structurally or physiologically related compounds. […] The concentration of free scFv in the equilibrium mixtures was determined and plotted against concentration of competitor. Affinity was determined by fitting the data points to a solution affinity model (Fig 4). The KA value was determined for each compound, and then percentage cross-reactivity was calculated by expressing each KA value relative to the KA for (+)-ABA. Values were compared to literature data for the parental monoclonal antibody (Table 3).
Fig 4 Cross-reactivity of the anti-ABA-scFv. […] The concentration of free scFv in the equilibrium mixtures was plotted against the concentration of test compound. The structures of each competitor are shown framed in the same colours as the data in the dose graph. There is no box for the racemic mix. The colour code for each compound is shown on the left of the plot.
Figure S6. Affinity in solution. (a) A calibration curve was generated by injecting known concentrations of free MBP-antiABA-scFv (0.1 nM – 50 nM) over the surface of a SA sensor chip saturated with b -PEG-ABA, plotting the initial binding rate against concentration and fitting the data points to a 4 -parameter equation. (b) MBP- […]
1 nM, 5 nM, 10 nM, 50 nM, 100 nM, 200 nM, 500 nM), and the mixtures incubated to equilibrium (1 hour at 25°C). The concentration of free MBP -antiABA-scFv in the equilibrium mixtures was then determined from the calibration curve. The concentration of free MBP -antiABA-scFv in the equilibrium mixtures was plotted against (+)-ABA concentration and the data points were fitted to a solution affinity […]
(1 picture or pasted object on this page, not shown here)

mAb 15-I-C5 = details: cited from earlier work
[1] = no reference given; cited from earlier work
[2] = radiolabel displacement curves, 50% displacement, ref Phytodetek manual m100.2, Agdia Inc.
[3] = radiolabel displacement curves, 50% displacement, ref Walker-Simmons et al., 1991

Row | SMILES | Kd (MBP-antiABA-scFv) | Cross-reactivity MBP-aABA-scFv (MBP-antiABA-scFv) | Affinity in solution, MBP-aABA-scFv, KA (MBP-antiABA-scFv) | Cross-reactivity mAb 15-I-C5 (mAb 15-I-C5; [2]) | other results
1 | CC1=CC(=O)CC(C)(C)[C@@]1(O)/C=C/C(C)=C/C(=O)O [2-trans-(S)-(+)-ABA] | – | – | – | 0% | Cross-reactivity mAb 15-I-C5 (mAb 15-I-C5; [3]): 0.98%
2 | NCCCCC(N)C(=O)O (racemic) [D,L-Lysine] | 6120 µM | 0.00006% | 163 M⁻¹ | – | Cross-reactivity MBP-aABA-scFv (MBP-antiABA-scFv; listed as lysine): lower than 10^−4%
3 | CC1=CC(=O)CC(C)(C)C1(O)/C=C/C(C)=C\C(=O)O (centres unmarked) [ABA, abscisic acid] | – | – | – | – | pKa [1]: 4.75
4 | CC(C=CC1(O)C(C)=CC(=O)CC1(C)C)=CC(=O)O (racemic) [2-cis-(R,S)-(±)-ABA] | 0.00761 µM | 44.25% | 1.31e+08 M⁻¹ | – | Cross-reactivity MBP-aABA-scFv (MBP-antiABA-scFv; listed as (±)-ABA): 44.3%; Cross-reactivity mAb 15-I-C5 (mAb 15-I-C5; [3]): 49.4 ^d %
5 | O=C(O)c1ccccc1 [Benzoic acid] | 10900 µM | 0.00003% | 91.7 M⁻¹ | – | Cross-reactivity MBP-aABA-scFv (MBP-antiABA-scFv; listed as benzoic acid): lower than 10^−4%
6 | CC1=CC(=O)CC(C)(C)[C@@]1(O)/C=C/C(C)=C\C(=O)O [2-cis-(S)-(+)-ABA] | 0.00337 µM | 100% | 2.96e+08 M⁻¹ | – | affinity relative to the inactive (-)-ABA (MBP-antiABA-scFv; scFv): three orders of magnitude higher; Cross-reactivity mAb 15-I-C5 (mAb 15-I-C5; reference value, determined by other investigators, no source marked): 100%

Further lines, with some results ahead:

Row | Kd (MBP-antiABA-scFv) | SMILES | Cross-reactivity MBP-aABA-scFv (MBP-antiABA-scFv) | Affinity in solution, MBP-aABA-scFv, KA (MBP-antiABA-scFv) | Cross-reactivity mAb 15-I-C5 (mAb 15-I-C5; [2]) | other results
7 | 7230 µM | O=C(O)Cc1c[nH]c2ccccc12 [Indole-3-acetic acid] | 0.00005% | 138 M⁻¹ | – | Cross-reactivity MBP-aABA-scFv (MBP-antiABA-scFv; listed as auxin): lower than 10^−4%
8 | 2.17 µM | CC(C=CC1(O)C2(C)COC1(C)CC(O)C2)=CC(=O)O (centres unmarked) [Dihydrophaseic acid] | 0.156% | 462000 M⁻¹ | <0.1 ^c % | Cross-reactivity MBP-aABA-scFv (MBP-antiABA-scFv; listed as dihydrophaseic acid): 0.16%; affinity, fold lower than that for (+)-ABA (MBP-antiABA-scFv; scFv): over 100 fold
9 | 17100 µM | CC(C)=CCC/C(C)=C/CC/C(C)=C/CO [All-trans-Farnesol] | 0.00002% | 58.4 M⁻¹ | 0 ^c % | Cross-reactivity MBP-aABA-scFv (MBP-antiABA-scFv; listed as farnesol): lower than 10^−4%
10 | 11.3 µM | CC(=C/C(=O)O)/C=C/[C@]1(O)[C@@]2(C)CO[C@]1(C)CC(=O)C2 [Phaseic acid] | 0.029% | 88200 M⁻¹ | <0.1 ^c % | Cross-reactivity MBP-aABA-scFv (MBP-antiABA-scFv; listed as phaseic acid): 0.03%; affinity, fold lower than that for (+)-ABA (MBP-antiABA-scFv; scFv): over 100 fold
11 | 1620 µM | CC(C=CC12OC1(C)CC(O)CC2(C)C)=CC=O (centres unmarked) [Xanthoxin] | 0.0002% | 617 M⁻¹ | 0 ^c % | Cross-reactivity MBP-aABA-scFv (MBP-antiABA-scFv; listed as xanthoxin): lower than 10^−4%
12 | 1.09 µM | CC(C=CC1C(C)=CC(=O)CC1(C)C)=CC(=O)O (mixture of isomers) [2-cis-(R,S)-(±)-1’-deoxy-ABA] | 0.309% | 917000 M⁻¹ | – | Cross-reactivity MBP-aABA-scFv (MBP-antiABA-scFv; listed as 1ʹ-deoxy-ABA): 0.3%; affinity, fold lower than that for (+)-ABA (MBP-antiABA-scFv; scFv): over 100 fold
13 | 32800 µM | C=C1C[C@]23C[C@@]1(O)CC[C@H]2[C@@]12C=C[C@H](O)[C@@](C)(C(=O)O1)[C@H]2[C@@H]3C(=O)O [Gibberellic acid] | 0.00001% | 30.4 M⁻¹ | – | Cross-reactivity MBP-aABA-scFv (MBP-antiABA-scFv; listed as gibberellic acid): lower than 10^−4%
